{
  "source": "paper PMC6699497",
  "about": "(Drug Design, Development and Therapy, 2019)",
  "origin": "cited, not measured here",
  "key": {"[1]": {"settings": "rat"}, "[2]": {"settings": "species not given"}, "[3]": {"settings": "previous study compared with present value"}},
  "data": [
    {"compound": "CNC(=O)c1c(C)oc2cc(Oc3ncnc4cc(OC)c(OC)cc34)ccc12", "note": "[Fruquintinib, 6-(6,7-dimethoxyquinazolin-4-yloxy) - N,2-dimethylbenzofuran-3-carboxamide]", "values": [
      {"measurement": "oral bioavailability", "setting": "[1]", "result": "42–53%"},
      {"measurement": "Cmax", "setting": "[1]; [3]", "result": 326.00, "unit": "ng/mL"},
      {"measurement": "t1/2", "setting": "[1]; [3]", "result": 1.40, "unit": "h"},
      {"measurement": "plasma protein binding fraction", "setting": "[2]", "result": "88–95%"}
    ]}
  ]
}
